The values below come from ChEMBL document CHEMBL4610122, “Synthesis and Structure-Activity Relationships of DCLK1 Kinase Inhibitors Based on a 5,11-Dihydro-6H-benzo[e]pyrimido[5,4-b][1,4]diazepin-6-one Scaffold” (J Med Chem, 2020).

The source made the active and inactive calls. No cut-off for these calls is given here. Bounds are passed on as bounds.

The target in series [1] is Leucine-rich repeat serine/threonine-protein kinase 2 (Homo sapiens, UniProt Q5S007). Put plainly: Inhibition of recombinant human GST-tagged LRRK2 catalytic domain (970 to 2527 residues) expressed in baculovirus expression system using LRRKtide as substrate measured after 1 hr by Alexa fluor-647 ADP tracer-based ADAPTA assay.
Leucine-rich repeat serine/threonine-protein kinase 2, sequence (Q5S007 whole entry, the tested form may be a part): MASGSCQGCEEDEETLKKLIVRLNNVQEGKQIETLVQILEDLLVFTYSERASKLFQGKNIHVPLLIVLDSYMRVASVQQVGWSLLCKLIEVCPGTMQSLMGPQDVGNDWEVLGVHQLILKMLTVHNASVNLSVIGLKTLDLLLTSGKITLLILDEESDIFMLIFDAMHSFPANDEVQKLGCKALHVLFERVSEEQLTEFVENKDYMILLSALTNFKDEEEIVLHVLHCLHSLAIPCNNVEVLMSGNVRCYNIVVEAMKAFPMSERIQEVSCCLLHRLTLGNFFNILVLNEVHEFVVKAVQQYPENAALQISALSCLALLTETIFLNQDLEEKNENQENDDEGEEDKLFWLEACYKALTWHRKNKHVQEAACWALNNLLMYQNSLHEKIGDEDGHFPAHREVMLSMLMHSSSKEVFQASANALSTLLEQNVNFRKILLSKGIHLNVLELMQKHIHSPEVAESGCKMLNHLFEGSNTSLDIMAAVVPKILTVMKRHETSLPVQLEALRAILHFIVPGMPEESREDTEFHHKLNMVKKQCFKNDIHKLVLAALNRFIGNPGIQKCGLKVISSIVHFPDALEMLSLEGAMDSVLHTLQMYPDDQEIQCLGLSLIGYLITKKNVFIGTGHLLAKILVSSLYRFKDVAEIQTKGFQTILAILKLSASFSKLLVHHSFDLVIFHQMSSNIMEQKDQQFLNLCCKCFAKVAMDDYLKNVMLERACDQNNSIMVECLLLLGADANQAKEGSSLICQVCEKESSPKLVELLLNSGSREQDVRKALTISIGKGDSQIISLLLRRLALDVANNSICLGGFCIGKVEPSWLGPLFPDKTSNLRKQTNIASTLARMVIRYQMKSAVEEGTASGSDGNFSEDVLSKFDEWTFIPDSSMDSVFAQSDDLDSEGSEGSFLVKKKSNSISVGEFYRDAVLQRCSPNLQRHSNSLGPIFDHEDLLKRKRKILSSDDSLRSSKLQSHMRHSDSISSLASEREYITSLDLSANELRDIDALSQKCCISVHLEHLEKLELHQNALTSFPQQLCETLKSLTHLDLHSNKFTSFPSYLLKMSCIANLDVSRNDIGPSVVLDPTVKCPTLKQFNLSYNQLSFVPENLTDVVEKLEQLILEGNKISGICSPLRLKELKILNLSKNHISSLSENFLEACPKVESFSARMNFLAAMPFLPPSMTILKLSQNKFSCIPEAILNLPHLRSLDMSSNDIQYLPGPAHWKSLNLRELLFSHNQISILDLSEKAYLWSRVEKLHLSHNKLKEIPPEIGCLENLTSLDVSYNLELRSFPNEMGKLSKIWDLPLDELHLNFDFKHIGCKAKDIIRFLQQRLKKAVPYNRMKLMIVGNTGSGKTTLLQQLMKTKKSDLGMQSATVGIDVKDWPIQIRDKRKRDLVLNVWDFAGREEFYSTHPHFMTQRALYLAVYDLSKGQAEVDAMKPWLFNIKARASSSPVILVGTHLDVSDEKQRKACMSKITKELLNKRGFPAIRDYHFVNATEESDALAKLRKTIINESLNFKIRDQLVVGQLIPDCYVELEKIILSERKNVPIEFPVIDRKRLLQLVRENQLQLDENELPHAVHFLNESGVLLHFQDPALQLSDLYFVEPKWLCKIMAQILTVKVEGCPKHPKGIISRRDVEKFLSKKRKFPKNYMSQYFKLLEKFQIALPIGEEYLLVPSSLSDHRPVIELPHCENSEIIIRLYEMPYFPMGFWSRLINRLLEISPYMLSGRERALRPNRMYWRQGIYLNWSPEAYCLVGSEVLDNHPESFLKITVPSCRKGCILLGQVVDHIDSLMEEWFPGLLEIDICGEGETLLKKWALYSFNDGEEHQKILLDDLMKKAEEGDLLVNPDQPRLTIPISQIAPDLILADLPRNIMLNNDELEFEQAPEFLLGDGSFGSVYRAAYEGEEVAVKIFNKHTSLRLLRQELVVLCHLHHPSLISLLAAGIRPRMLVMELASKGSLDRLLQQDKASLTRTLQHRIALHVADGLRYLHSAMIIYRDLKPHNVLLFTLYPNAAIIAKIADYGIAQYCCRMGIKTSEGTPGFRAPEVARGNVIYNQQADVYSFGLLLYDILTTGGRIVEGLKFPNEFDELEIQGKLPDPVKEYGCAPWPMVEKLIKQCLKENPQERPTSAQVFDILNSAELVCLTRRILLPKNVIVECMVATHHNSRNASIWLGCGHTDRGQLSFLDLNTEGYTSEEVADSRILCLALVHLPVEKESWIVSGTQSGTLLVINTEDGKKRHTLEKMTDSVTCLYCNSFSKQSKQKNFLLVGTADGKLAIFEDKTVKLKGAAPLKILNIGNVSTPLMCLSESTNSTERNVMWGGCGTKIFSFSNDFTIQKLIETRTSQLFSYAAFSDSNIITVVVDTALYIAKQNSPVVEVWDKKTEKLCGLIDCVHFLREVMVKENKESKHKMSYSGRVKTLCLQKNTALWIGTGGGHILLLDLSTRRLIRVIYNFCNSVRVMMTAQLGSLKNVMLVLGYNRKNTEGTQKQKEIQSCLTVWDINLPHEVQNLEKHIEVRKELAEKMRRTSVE
For series [2], the target named is T1, Serine/threonine-protein kinase DCLK1 (Homo sapiens, UniProt O15075).
T1 sequence (O15075 whole entry): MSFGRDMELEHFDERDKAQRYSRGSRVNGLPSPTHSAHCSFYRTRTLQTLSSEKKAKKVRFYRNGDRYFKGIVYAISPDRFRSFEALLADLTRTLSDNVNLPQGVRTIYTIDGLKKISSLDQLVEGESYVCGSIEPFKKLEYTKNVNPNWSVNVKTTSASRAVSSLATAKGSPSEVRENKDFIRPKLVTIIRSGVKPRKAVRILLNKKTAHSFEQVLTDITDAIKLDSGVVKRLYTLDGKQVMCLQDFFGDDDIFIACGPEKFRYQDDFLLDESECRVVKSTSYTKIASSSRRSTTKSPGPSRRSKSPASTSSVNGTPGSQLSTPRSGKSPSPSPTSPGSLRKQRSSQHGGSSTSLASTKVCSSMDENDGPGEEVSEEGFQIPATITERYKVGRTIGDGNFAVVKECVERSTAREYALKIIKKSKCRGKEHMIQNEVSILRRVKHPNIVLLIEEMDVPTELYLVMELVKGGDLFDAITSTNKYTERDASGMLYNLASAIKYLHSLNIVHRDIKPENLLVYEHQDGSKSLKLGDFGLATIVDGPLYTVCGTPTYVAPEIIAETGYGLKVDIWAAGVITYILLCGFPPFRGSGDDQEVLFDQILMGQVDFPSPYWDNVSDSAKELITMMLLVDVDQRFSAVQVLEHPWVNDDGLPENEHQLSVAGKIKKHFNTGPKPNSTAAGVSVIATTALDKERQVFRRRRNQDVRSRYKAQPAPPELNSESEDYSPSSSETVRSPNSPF
The series is described as follows: Inhibition of recombinant human N-terminal His6-tagged DCLK1 (G351 to H689 residues) expressed in Escherichia coli BL21 DE3 using 5-FAM-KKLRRTLSVA-COOH as substrate measured after 2 hrs by mobility shift assay.

Series [3] has as its target Bromodomain-containing protein 4 (Homo sapiens, UniProt O60885). Put plainly: Inhibition of BRD4 bromodomain 1 (unknown origin) by AlphaScreen displacement assay. A general note: In Alpha technology, singlet oxygen from a donor bead excites a nearby acceptor bead.
Series [4] concerns the target Mitogen-activated protein kinase 7 (Homo sapiens, UniProt Q13164). Put plainly: Inhibition of ERK5 in human HeLa cells assessed as reduction in EGF-induced ERK5 autophosphorylation pretreated for 1 hr followed by EGF stimulation and measured after 17 mins by […]. The class given is cell-based.
Series [5] in a line: Half life in mouse. To be noted: in vivo. The class given is ADME, organism-based.
The species entered for series [6] is Homo sapiens. The series is described as follows: Cytotoxicity against human Panc286 cell organoids assessed as reduction in cell viability up to 1 uM measured after 4 days. In kind it is functional.
The species named for series [7] is Homo sapiens. The series is described as follows: Cytotoxicity against human Panc281 cell organoids assessed as reduction in cell viability up to 1 uM measured after 4 days. The class given is functional.
Series [8] is described as follows: Clearance in mouse. In kind it is ADME, organism-based. To be noted: in vivo.
Series [9] can be described thus: AUC in mouse. In kind it is ADME, organism-based. To be noted: in vivo.
Series [10] is described as follows: Cytotoxicity against human Panc286 cell organoids assessed as reduction in cell viability at 1 uM measured after 12 days relative to control. In kind it is functional.
A short description of series [11]: Cytotoxicity against human Panc281 cell organoids assessed as reduction in cell viability at 1 uM measured after 12 days relative to control. The class given is functional.

Mitogen-activated protein kinase 7, sequence (Q13164 whole entry): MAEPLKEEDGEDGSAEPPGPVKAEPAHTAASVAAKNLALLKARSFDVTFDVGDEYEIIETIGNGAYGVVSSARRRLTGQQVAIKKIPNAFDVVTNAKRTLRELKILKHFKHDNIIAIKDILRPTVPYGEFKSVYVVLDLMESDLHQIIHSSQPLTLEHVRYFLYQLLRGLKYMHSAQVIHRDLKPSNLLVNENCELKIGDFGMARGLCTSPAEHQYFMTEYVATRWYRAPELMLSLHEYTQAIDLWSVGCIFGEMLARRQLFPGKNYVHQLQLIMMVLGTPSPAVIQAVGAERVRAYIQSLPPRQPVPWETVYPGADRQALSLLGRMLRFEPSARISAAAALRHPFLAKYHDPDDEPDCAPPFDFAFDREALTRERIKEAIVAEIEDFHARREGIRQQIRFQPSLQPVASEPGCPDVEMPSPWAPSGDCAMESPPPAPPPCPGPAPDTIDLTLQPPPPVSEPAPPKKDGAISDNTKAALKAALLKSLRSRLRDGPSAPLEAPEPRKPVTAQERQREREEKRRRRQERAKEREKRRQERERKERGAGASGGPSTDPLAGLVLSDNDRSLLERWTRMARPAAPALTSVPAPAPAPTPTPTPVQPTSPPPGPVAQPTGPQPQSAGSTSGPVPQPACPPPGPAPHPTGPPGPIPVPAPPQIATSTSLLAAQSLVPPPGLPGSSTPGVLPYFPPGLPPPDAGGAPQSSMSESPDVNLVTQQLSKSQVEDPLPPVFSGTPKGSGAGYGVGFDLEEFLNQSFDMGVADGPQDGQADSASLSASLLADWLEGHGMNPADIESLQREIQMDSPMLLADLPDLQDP

As usually defined, the IC50 is the concentration that inhibits the measured activity by half. For the compound `CCOc1cc(N2CCC(O)CC2)ccc1Nc1ncc2c(n1)N(C)c1ccccc1C(=O)N2C`, the IC50 was found to be 46 nM in [1] and 716 nM in series [2].
For `COc1cc(N2CCN(C)CC2)ccc1Nc1ncc2c(n1)N(C(C)C)c1ccccc1C(=O)N2C` the same measures were 289 nM and 71 nM.
In the same order, the values of `CCOc1cc(C(=O)N2CCC(N3CCN(C)CC3)CC2)ccc1Nc1ncc2c(n1)N(C1CCCC1)c1ccccc1C(=O)N2C` are 171 nM and 22 nM.
In the same order, the values of `COc1cc(N2CCN(C)CC2)ccc1Nc1ncc2c(n1)N(C1CCCC1)c1ccccc1C(=O)N2C` are 421 nM and 26 nM.
Consider `CC(C)Oc1cc(N2CCN(C)CC2)ccc1Nc1ncc2c(n1)N(C)c1ccccc1C(=O)N2CC(F)(F)F`, for which the IC50 in series [2] was determined as 214 nM.
Regarding `CCN1C(=O)c2ccccc2N(C)c2nc(Nc3ccc(NS(C)(=O)=O)cc3OC)ncc21`, the IC50 in [3] amounted to 4600 nM; in [1], 23 nM; in series [2], 36 nM.
For `COc1cc(N2CCN(C)CC2)ccc1Nc1ncc2c(n1)N(C)c1ccc(C)cc1C(=O)N2CC(F)(F)F`, the IC50 in [2] is over 5000 nM.
Regarding `COc1cc(N2CCN(C)CC2)ccc1Nc1ncc2c(n1)N(C)c1ccccc1C(=O)N2C`, the IC50 in series [3] is 888 nM; in [1], 29 nM; in series [2], 11 to 16 nM.
Turning to `COc1cc(N2CCC(O)CC2)ccc1Nc1ncc2c(n1)N(C)c1ccccc1C(=O)N2C`, the half-inhibitory concentration (IC50) in [1] was determined as 14.1 nM; in series [2], 97 nM.
In the same order, the values of `COc1cc(N2CCN(C)CC2)ccc1Nc1ncc2c(n1)N(C)c1ccc(C)cc1C(=O)N2C` are 928 nM and over 2000 nM.
In the same order, the values of `CCN1c2ccccc2C(=O)N(C)c2cnc(Nc3ccc(N4CCN(C)CC4)cc3OC)nc21` are 57 nM and 154 nM.
Regarding `COc1cc(C(=O)NC2CCN(C)CC2)ccc1Nc1ncc2c(n1)N(C)c1ccccc1C(=O)N2C`, the IC50 in [3] is 4170 nM; in series [1], 8.2 to 18 nM; in series [2] it was 1 to 4 nM.
With `CC(C)Oc1cc(N2CCC(O)CC2)ccc1Nc1ncc2c(n1)N(C)c1ccccc1C(=O)N2C`, the values for the IC50 in [1] and in series [2] were 160 nM and 510 nM, respectively.
For `CN1C(=O)c2ccccc2N(C)c2nc(Nc3ccc(N4CCC(O)CC4)cc3)ncc21` the same measures were 30 nM and 109 nM.
For `Cc1cc(N2CCC(O)CC2)ccc1Nc1ncc2c(n1)N(C)c1ccccc1C(=O)N2C` the same measures were 35 nM and 37 nM.
With `COc1cc(C(=O)NC2CCN(C)CC2)ccc1Nc1ncc2c(n1)N(C)c1ccccc1C(=O)N2C(C)C`, the IC50 in [3] came to 2380 nM; in series [1] it was 331 nM; in [2], 126 nM.
For `CN1C(=O)c2ccccc2N(C)c2nc(Nc3cccc(S(N)(=O)=O)c3)ncc21`, the IC50 in [1] was 6.1 nM; in series [2], 111 nM.
For `CN1C(=O)c2ccccc2N(C)c2nc(Nc3ccc(S(N)(=O)=O)cc3)ncc21` the same measures were 7 nM and 187 nM.
With `COc1cc(N2CCN(C)CC2)ccc1Nc1ncc2c(n1)N(C)c1ccccc1C(=O)N2`, the IC50 was over 10000 nM in series [3], 1200 nM in [4], 70 nM in series [1] and over 1000 nM in series [2].
With `COc1cc(NS(C)(=O)=O)ccc1Nc1ncc2c(n1)N(C)c1ccccc1C(=O)N2C(C)C`, the figures for the IC50 in [3], in series [1] and in series [2] were 7490 nM, 683 nM and over 1000 nM, respectively.
The clearance is the volume of plasma or blood freed of the substance per unit of time. In general, AUC refers to concentration integrated over time. On to `COc1cc(N2CCN(C)CC2)ccc1Nc1ncc2c(n1)N(C)c1ccccc1C(=O)N2CC(F)(F)F`, for which the t1/2 in series [5] was 2.09 h. Moreover, the IC50 in series [3] was over 10000 nM; in [4] (hela) it was 3350 nM; in [1], 7000 nM; in series [2], 17 nM. In addition, the result in series [6] and in series [7] was inactive. For the same compound, in series [8], the clearance was 26.3 mL/min/kg. Besides, the AUC in series [9] amounted to 1270 ng·h/mL. Also, the Activity entry in [10] and in series [11] was “>=50 - 90%” in each case.
In the case of `CCN1C(=O)c2ccccc2N(C)c2nc(Nc3ccc(N4CCN(C)CC4)cc3OC)ncc21`, the IC50 in series [3] came out at 830 nM; in [4] it was 1200 nM; in [1] it was 62 nM; in series [2], 3 nM.
`COc1cc(N2CCN(C)CC2)ccc1Nc1ncc2c(n1)N(C)c1ccc(Cl)cc1C(=O)N2C`: the IC50 is 1330 nM in [1] and over 2000 nM in series [2].
For `CCC(C)N1c2ccccc2C(=O)N(C)c2cnc(Nc3ccc(N4CCN(C)CC4)cc3OC)nc21` (stereo not given), the values for the IC50 in series [4], in [1] and in series [2] were 222 nM, 743 nM and 32 nM, respectively.
On to `COc1cc(N2CCN(C3CCN(C)CC3)CC2)ccc1Nc1ncc2c(n1)N(C)c1ccccc1C(=O)N2C`, for which the half-inhibitory concentration (IC50) in [1] was determined as 16 nM; in series [2] it was 104 nM.
In the same order, the values of `COc1cc(N2CCN(C)CC2)ccc1Nc1ncc2c(n1)N(Cc1ccccc1)c1ccccc1C(=O)N2C` are 141 nM and 4 nM.
Consider `COc1cc(NS(C)(=O)=O)ccc1Nc1ncc2c(n1)N(C)c1ccccc1C(=O)N2C`, for which the IC50 in [3] was 125 nM; in series [4] it was 276 nM; in series [1] it was 5.9 to 6 nM; in [2] it was 3 to 16 nM.
Regarding `COc1cc(N2CCN(C)CC2)ccc1Nc1ncc2c(n1)N(C)c1cc(Cl)ccc1C(=O)N2C`, the IC50 is 3740 nM in [1] and over 2000 nM in series [2].
As to `COc1cc(NS(C)(=O)=O)ccc1Nc1ncc2c(n1)N(C)c1ccccc1C(=O)N2CC(F)(F)F`, the concentration for half-maximal inhibition (IC50) is over 10000 nM in series [3], 8890 nM in [1] and 80 nM in series [2].
Consider `COc1cc(C(=O)N2CCN(C3CCN(C)CC3)CC2)ccc1Nc1ncc2c(n1)N(C)c1ccccc1C(=O)N2C`, for which, in [1], the IC50 was found to be 5 nM.
On to `COc1cc(N2CCOCC2)ccc1Nc1ncc2c(n1)N(C)c1ccccc1C(=O)N2C`, for which the IC50 in series [1] was determined as 31 nM; in series [2], 11 nM.
`CCN1C(=O)c2ccccc2N(C)c2nc(Nc3ccc(C(=O)NC4CCN(C)CC4)cc3OC)ncc21`: the IC50 in series [3] amounted to 520 nM; in series [4], 482 nM; in series [1], 14 nM; in [2] it was 2 nM.
With `CN1C(=O)c2ccccc2N(C)c2nc(Nc3ccc(NS(C)(=O)=O)cc3)ncc21`, the IC50 in series [2] turned out to be 2 nM.
For the compound `COc1cc(N2CCN(C)CC2)ccc1Nc1ncc2c(n1)N(C1CCC1)c1ccccc1C(=O)N2C`, the IC50 stood at 79 nM in series [4], 97 nM in [1] and 14 nM in [2].
For `COc1cc(N2CCN(C)CC2)ccc1Nc1nc(C)c2c(n1)N(C)c1ccccc1C(=O)N2C` the same measures were over 10000 nM, 501 nM and over 2000 nM.
As to `COc1cc(N2CCNCC2)ccc1Nc1ncc2c(n1)N(C)c1ccccc1C(=O)N2C`, the figures for the IC50 in series [1] and in series [2] were 23 nM and 52 nM, respectively.
As for `COc1cc(C(=O)NC2CCN(C)CC2)ccc1Nc1ncc2c(n1)N(C)c1ccccc1C(=O)N2CC(F)(F)F`, the values for the IC50 in [3], in [1] and in series [2] were 1570 nM, 378 nM and 10 nM, respectively.
On to `COc1cc(N2CCN(C)CC2)ccc1Nc1ncc2c(n1)N(C)c1ccccc1C(=O)N2C(C)C`, for which the results for the IC50 in [3], in [1] and in series [2] were 1200 nM, 1900 nM and 411 nM, respectively.
